# Target: T1, TRKA (Homo sapiens, UniProt P04629)
# T1 construct: aa 441-; 4 nM; 40 uM; 35 min; (NTRK1); 796; His; purchased Invitrogen PV3144
# Assay: Isolated TRK enzyme assay (HTRF KinEASE-TK kit, PV3144 TrkA enzyme assay)
# Type: biochemical
# Conditions: recombinant His-tagged cytoplasmic domain aa 441-796, 4 nM enzyme, 40 uM ATP, 35 min, arithmetic mean where more than one reading
# Protocol: Isolated TRK Enzyme assays use the HTRF KinEASE-TK kit (Cisbio Cat#62TKOPEJ) with recombinant His-tagged cytoplasmic domains of TRKA receptor sourced from Invitrogen (see table below). This activity-assay measures the phosphorylation of tyrosine residues within a substrate from the HTRF kit which has been validated by Cisbio for a variety of tyrosine kinases including the TRK receptors.
# 0.5 mM stock solutions of test compounds are prepared and serially diluted in 100% DMSO. […] Greiner low volume black plates containing 0.2 ul of serially diluted compound, standard and HPE/ZPE are created using the Bravo nanolitre dispenser. 1× enzyme buffer is prepared from 5× Enzymatic Buffer from the Cisbio KinEASE TK kit using MilliQ water. The buffer is then supplemented with 10 mM MgCl and 2 mM DTT (both from Sigma). […] 2×FAC of enzyme and 2×FAC ATP diluted in 1× complete enzyme buffer is incubated at room temperature for 20 minutes to preactivate the enzyme. Following this preactivation step, 5 ul/well of enzyme+ATP mix is added using a Multidrop Micro to the assay plate, spotted with 0.2 ul 100% DMSO compound. This is left for 20 mins at room temperature before adding 5 ul of 2 uM TK-substrate-Biotin (from the Cisbio kit) diluted in 1× enzyme buffer (1 uM FAC) using the Multidrop Micro. The reaction is incubated at room temperature for the optimized assay reaction time (see table).
# After the Detection Reagent addition, plates are covered and incubated at room temperature for 60 minutes. HTRF signal is read using an Envision reader, measured as a ratio of emissions at two different wavelengths, 620 nm and 665 nm. […] Test compound data are expressed as percentage inhibition defined by HPE and ZPE values for each plate.
# Percentage inhibition in the presence of test compound is plotted against compound concentration on a log scale to determine an IC50 from the resultant sigmoid curve. Cell Based Assays were carried out using Cell lines from DiscoveRx utilising their PathHunter technology and reagents in an antagonist assay:
# Where more than one reading was taken, the arithmetic mean is presented.
# T1 sequence (P04629 441-796): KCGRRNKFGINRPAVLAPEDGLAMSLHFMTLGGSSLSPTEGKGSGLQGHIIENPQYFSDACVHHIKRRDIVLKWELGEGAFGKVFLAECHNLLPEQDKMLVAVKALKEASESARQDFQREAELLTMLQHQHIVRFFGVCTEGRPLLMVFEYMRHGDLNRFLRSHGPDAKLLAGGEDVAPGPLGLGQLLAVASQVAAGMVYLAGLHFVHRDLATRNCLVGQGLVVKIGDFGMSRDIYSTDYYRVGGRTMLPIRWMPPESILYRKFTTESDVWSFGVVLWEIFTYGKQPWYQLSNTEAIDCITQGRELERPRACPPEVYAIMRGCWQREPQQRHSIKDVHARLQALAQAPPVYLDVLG
row,SMILES,IC50 [nM]
1,"NC(=O)c1cnc(N)c(COC2CN(C(=O)Cc3ccc(OC(F)(F)F)cc3)CC2(F)F)c1 (single isomer, unassigned) [Example 5]",10.8
2,"CCNC(=O)c1cnc(N)c(O[C@H]2CN(C(=O)Cc3ccc(OC(F)(F)F)cc3)C[C@@H]2C)c1 [Example 21, (3R,4S)-6-amino-N-ethyl-5-[(4-methyl-1-{[4-(trifluoromethoxy)phenyl]acetyl}pyrrolidin-3-yl)oxy]pyridine-3-carboxamide]",126
3,"CCN(CC)C(=O)c1cnc(N)c(OC2CN(C(=O)Cc3ccc(OC(F)(F)F)cc3)CC2(C)OC)c1 (racemic) [Example 25, Racemic-6-amino-N,N-diethyl-5-[(4-methoxy-4-methyl-1-{[4-(trifluoromethoxy)phenyl]acetyl}pyrrolidin-3-yl)oxy]pyridine-3-carboxamide]",129
4,"NC(=O)c1cnc(N)c(OCC2CN(C(=O)Cc3ccc(OC(F)(F)F)cc3)CC2(F)F)c1 (racemic) [Example 13, Racemic-6-amino-5-[(4,4-difluoro-1-{[4-(trifluoromethoxy)phenyl]acetyl}pyrrolidin-3-yl)methoxy]pyridine-3-carboxamide]",30.3
5,"NC(=O)c1cnc(N)c(COC2CN(C(=O)Cc3ccc(OC(F)(F)F)cc3)CC2(F)F)c1 (single isomer, unassigned) [Example 6]",630
6,"C[C@H]1CN(C(=O)Cc2ccc(OC(F)(F)F)cc2)C[C@@H]1Oc1cc(C(=O)NCC#N)cnc1N [Example 22, (3R,4S)-6-amino-N-(cyanomethyl)-5-[(4-methyl-1-{[4-(trifluoromethoxy)phenyl]acetyl}pyrrolidin-3-yl)oxy]pyridine-3-carboxamide]",330
7,"CNC(=O)c1cnc(N)c(O[C@H]2CN(C(=O)Cc3ccc(OC(F)(F)F)cc3)C[C@@H]2C)c1 [Example 17, (3R,4S)-6-amino-N-methyl-5-[(4-methyl-1-{[4-(trifluoromethoxy)phenyl]acetyl}pyrrolidin-3-yl)oxy]pyridine-3-carboxamide]",105
8,"NC(=O)c1cnc(N)c(OC2CN(C(=O)Cc3ccc(OC(F)(F)F)cc3)CC23CC3)c1 (stereo not drawn) [Example 18, 6-amino-5-[(5-{[4-(trifluoromethoxy)phenyl]acetyl}-5-azaspiro[2.4]hept-7-yl)oxy]pyridine-3-carboxamide]",110
9,"NC(=O)c1cnc(N)c(OCC2CN(C(=O)Cc3ccc(OC(F)(F)F)cc3)CC2(F)F)c1 (single isomer, unassigned) [Example 15]",15.8

# Continued, values first:
row,IC50 [nM],SMILES
1,12.3,"CNC(=O)c1cnc(N)c(O[C@H]2CN(C(=O)Cc3ccc(OC(F)(F)F)cc3)CC2(C)C)c1 [Example 20, (R)-6-amino-5-[(4,4-dimethyl-1-{[4-(trifluoromethoxy)phenyl]acetyl}pyrrolidin-3-yl)oxy]-N-methylpyridine-3-carboxamide]"
2,11.6,"CNC(=O)c1cnc(N)c(OCC2CN(C(=O)Cc3ccc(OC(F)(F)F)cc3)CC2(F)F)c1 (single isomer, unassigned) [Example 11]"
3,11.8,"CC1(C)CN(C(=O)Cc2ccc(OC(F)(F)F)cc2)C[C@@H]1Oc1cc(C(N)=O)cnc1N [Example 19, (R)-6-amino-5-[(4,4-dimethyl-1-{[4-(trifluoromethoxy)phenyl]acetyl}pyrrolidin-3-yl)oxy]pyridine-3-carboxamide]"
4,2100,"C[C@H]1CN(C(=O)Cc2ccc(OC(F)(F)F)cc2)C[C@@H]1Oc1cc(C(=O)NCC(C)(C)O)cnc1N [Example 23, (3R,4S)-6-amino-N-(2-hydroxy-2-methylpropyl)-5-[(4-methyl-1-{[4-(trifluoromethoxy)phenyl]acetyl}pyrrolidin-3-yl)oxy]pyridine-3-carboxamide]"
5,8660,"CC(C)(O)CNC(=O)c1cnc(N)c(OC2CN(C(=O)Cc3ccc(OC(F)(F)F)cc3)CC2(F)F)c1 (racemic) [Example 10, (S)-6-amino-5-[(4,4-difluoro-1-{[4-(trifluoromethoxy)phenyl]acetyl}pyrrolidin-3-yl)oxy]-N-(2-hydroxy-2-methylpropyl)pyridine-3-carboxamide]"
6,72.4,"CNC(=O)c1cnc(N)c(OC2CN(C(=O)Cc3ccc(OC(F)(F)F)cc3)CC23CC3)c1 (stereo not drawn) [Example 16, 6-amino-N-methyl-5-[(5-{[4-(trifluoromethoxy)phenyl]acetyl}-5-azaspiro[2.4]hept-7-yl)oxy]pyridine-3-carboxamide]"
7,1250,"CNC(=O)c1cnc(N)c(OCC2CN(C(=O)Cc3ccc(OC(F)(F)F)cc3)CC2(F)F)c1 (single isomer, unassigned) [Example 12]"
8,148,"Nc1ncc(C(=O)NCCO)cc1OC1CN(C(=O)Cc2ccc(OC(F)(F)F)cc2)CC1(F)F (single isomer, unassigned) [Example 8]"
9,55.5,"CNC(=O)c1cnc(N)c(OC2CN(C(=O)Cc3ccc(OC(F)(F)F)cc3)CC2(C)OC)c1 (racemic) [Example 24, Racemic-6-amino-5-[(4-methoxy-4-methyl-1-{[4-(trifluoromethoxy)phenyl]acetyl}pyrrolidin-3-yl)oxy]-N-methylpyridine-3-carboxamide]"

# Source: patent publication US20160221989A1, “N-Acylpyrrolidine Ether Tropomyosin-Related Kinase Inhibitors” (Pfizer Inc., priority 2014, published 2016)
